Measured values published in patent publication US20100063085A1, “METHOD OF TREATING LEARNING IMPAIRMENT IN DOWN'S SYNDROME SUBJECTS” (University Court of The University of Dundee, priority 2008, published 2010).
Like-named read-outs stand apart in the source and are kept apart here.

What was measured:
Format in all cases: biochemical
SAPK4/p38d = target: T1, SAPK4/p38d (Homo sapiens, UniProt O15264); experiment: SAPK4/p38d 33P kinase assay; settings: read-out: SAPK4/p38d activity as percentage of control without inhibitor
T1 sequence (O15264 1-365): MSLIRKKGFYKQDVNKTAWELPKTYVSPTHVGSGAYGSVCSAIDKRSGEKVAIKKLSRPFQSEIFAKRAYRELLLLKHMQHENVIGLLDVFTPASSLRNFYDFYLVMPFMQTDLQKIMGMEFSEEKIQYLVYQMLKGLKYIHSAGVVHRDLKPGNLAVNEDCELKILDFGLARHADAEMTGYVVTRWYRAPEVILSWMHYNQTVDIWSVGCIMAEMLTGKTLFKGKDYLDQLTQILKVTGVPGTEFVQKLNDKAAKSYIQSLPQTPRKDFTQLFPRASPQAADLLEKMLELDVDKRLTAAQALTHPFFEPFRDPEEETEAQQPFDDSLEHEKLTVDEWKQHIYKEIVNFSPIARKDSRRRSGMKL
Procedure: (§1) All assays (25.5 μl) were carried out at room temperature (21° C.) and were linear with respect to time and enzyme concentrations under the conditions used. Assays were performed for 30 minutes except assays for LCK and PKB which were performed for 15 minutes using Multidrop Micro reagent dispensers (Thermo Electron Corporation, Waltham, Mass. 02454, USA) in a 96-well format. The concentration of […] [γ-^33P] ATP (800 cpm/pmol) in the assays was one of three concentrations (5, 20 or 50 μM) in order to be at or below Km for ATP for the enzyme. Assays were initiated with MgATP and stopped by addition of 5 μl of 0.5M orthophosphoric acid. Assays were then harvested onto P81 filterplates using a unifilter harvester (PerkinElmer, Boston, Mass. 02118, USA), with a wash buffer of 50 mM orthophosphoric acid. Filterplates were then air dried overnight. 10 μl of Microscint O was added per well prior to counting for radioactivity.
(§2) MKK1, JNK/SAPK1c, SAPK2a/p38, SAPK2b/p38β2, SAPK3/p38γ, SAPK4/p38δ, MAPK2/ERK2, MAPKAP-K1β, MAPKAP-K2, MSK1, PRAK, PKA, PKCα, PDK1, SGK, p70S6K, GSK3β, ROCK-II, PRK2, AMPK, CHK1, CHK2, CK2, PHK, LCK, were assayed according to Davies et al., (Davies, S. P., Reddy, H., Caivano, M. and Cohen, P. Biochem. J. 351, 95-105, 2000.
(§3) CSK and CDK2/cyclinA, were assayed according to Bain et al. (Bain J, McLauchlan H, Elliott M, Cohen P. Biochem J. 371, 199-204, 2003., except that ATP concentrations were either 5, 20 or 50 micromolar so that they were at or below the Km for ATP. The ATP concentrations used were as follows, 5 μM for assays of MKK1, SAPK3, SAPK4, GSK3β, PRK2 CK2 20 μm for assays of JNK, SAPK2β, MAPKAP-K2, MSK1, PRAK, PKA, […], PDK1, SGK, p70S6K, ROCK-II, CHK1, CHK2, CSK, CDK2, and 50 μM for assays of SAPK2a, MAPK2/ERK2, AMPK, LCK, PHK and MAPKAP-K1β.

MAPKAP-K2 = MAPKAP-K2 (Homo sapiens, UniProt P49137); experiment: MAPKAP-K2 33P kinase assay; settings: read-out: MAPKAP-K2 activity as percentage of control without inhibitor
MAPKAP-K2, sequence (P49137 whole entry, species assumed): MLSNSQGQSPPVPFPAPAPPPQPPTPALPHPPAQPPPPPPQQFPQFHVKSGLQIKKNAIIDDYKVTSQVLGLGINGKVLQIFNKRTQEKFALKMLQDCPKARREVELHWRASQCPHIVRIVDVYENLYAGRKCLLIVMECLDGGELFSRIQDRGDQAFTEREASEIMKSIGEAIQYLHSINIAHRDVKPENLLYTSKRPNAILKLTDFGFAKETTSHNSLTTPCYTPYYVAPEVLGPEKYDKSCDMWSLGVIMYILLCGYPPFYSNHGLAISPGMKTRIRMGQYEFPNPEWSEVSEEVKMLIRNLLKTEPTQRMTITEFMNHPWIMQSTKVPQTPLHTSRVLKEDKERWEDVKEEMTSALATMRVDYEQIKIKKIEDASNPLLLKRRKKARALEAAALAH
Procedure: as §1, §2, §3

SGK = target: T2, SGK (Homo sapiens, UniProt O00141); experiment: SGK 33P kinase assay; settings: read-out: SGK activity as percentage of control without inhibitor
T2 sequence (O00141 1-431): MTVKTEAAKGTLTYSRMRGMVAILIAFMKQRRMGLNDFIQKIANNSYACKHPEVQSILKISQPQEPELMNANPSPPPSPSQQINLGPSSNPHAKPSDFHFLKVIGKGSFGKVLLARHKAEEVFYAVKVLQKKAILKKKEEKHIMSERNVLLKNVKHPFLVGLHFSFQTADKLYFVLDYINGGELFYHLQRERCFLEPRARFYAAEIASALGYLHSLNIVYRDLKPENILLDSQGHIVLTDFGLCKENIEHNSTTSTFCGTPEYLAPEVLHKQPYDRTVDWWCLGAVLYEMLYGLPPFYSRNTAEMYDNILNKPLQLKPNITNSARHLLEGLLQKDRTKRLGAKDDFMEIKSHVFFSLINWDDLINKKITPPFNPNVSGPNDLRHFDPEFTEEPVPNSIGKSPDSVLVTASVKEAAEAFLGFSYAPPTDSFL
Procedure: as §1, §2, §3

p70 S6K = p70 S6K (Homo sapiens, UniProt P23443); experiment: p70 S6K 33P kinase assay; settings: read-out: p70 S6K activity as percentage of control without inhibitor; for remaining activity at 1 µM: inhibitor 1 μM; for remaining activity at 10 µM: inhibitor 10 μM
p70 S6K, sequence (P23443 whole entry): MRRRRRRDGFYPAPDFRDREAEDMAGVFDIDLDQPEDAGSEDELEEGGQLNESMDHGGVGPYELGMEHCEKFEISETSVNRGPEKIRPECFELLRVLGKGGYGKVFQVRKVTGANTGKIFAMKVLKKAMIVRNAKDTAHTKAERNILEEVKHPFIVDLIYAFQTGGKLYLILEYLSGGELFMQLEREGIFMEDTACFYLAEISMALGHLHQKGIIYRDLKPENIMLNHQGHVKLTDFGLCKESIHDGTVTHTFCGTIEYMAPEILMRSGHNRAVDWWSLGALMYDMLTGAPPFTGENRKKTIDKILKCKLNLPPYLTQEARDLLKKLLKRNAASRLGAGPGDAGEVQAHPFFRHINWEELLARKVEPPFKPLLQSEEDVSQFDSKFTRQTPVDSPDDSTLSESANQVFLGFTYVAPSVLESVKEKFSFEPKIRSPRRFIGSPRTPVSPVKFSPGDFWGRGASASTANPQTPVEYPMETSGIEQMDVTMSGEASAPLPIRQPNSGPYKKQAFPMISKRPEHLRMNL
Procedure: as §1, §2, §3

GSK3b = GSK3b (Homo sapiens, UniProt P49841); experiment: GSK3b 33P kinase assay; settings: read-out: GSK3b activity as percentage of control without inhibitor
GSK3b, sequence (P49841 whole entry, species assumed): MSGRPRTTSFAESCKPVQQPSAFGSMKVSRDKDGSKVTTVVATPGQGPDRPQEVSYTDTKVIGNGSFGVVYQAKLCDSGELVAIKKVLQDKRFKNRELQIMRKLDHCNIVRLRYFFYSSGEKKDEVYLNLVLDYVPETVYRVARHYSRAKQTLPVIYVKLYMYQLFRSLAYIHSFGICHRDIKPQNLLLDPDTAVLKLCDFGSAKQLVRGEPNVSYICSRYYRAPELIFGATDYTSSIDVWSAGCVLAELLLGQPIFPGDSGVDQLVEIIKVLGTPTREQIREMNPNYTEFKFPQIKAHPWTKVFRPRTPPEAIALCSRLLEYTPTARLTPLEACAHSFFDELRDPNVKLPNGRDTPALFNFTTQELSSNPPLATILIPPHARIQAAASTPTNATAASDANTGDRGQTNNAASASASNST
Procedure: as §1, §2, §3

CHK2 = CHK2 (Homo sapiens, UniProt O96017); experiment: CHK2 33P kinase assay; settings: read-out: CHK2 activity as percentage of control without inhibitor
CHK2, sequence (O96017 whole entry, species assumed): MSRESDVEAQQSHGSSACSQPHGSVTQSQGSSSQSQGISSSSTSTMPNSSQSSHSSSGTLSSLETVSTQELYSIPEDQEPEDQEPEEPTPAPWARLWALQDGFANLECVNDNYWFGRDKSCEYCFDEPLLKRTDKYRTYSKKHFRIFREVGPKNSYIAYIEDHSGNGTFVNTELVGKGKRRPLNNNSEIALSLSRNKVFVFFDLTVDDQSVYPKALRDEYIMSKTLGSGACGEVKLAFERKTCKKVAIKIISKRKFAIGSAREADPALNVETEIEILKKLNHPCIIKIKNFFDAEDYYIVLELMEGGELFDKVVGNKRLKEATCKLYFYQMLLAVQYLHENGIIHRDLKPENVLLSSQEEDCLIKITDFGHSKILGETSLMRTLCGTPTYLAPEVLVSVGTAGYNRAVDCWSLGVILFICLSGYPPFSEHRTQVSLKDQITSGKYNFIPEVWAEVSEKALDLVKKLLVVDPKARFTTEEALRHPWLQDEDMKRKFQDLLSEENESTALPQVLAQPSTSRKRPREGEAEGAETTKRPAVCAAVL
Procedure: as §1, §2, §3

CK2 = CK2 33P kinase assay
Procedure: as §1, §2, §3

Compound	remaining activity at 1 µM (SAPK4/p38d; inhibitor 1 μM) [%]	remaining activity at 10 µM (SAPK4/p38d; inhibitor 10 μM) [%]	remaining activity at 1 µM (MAPKAP-K2; inhibitor 1 μM) [%]	remaining activity at 10 µM (MAPKAP-K2; inhibitor 10 μM) [%]	remaining activity at 1 µM (SGK; inhibitor 1 μM) [%]	remaining activity at 10 µM (SGK; inhibitor 10 μM) [%]	remaining activity at 1 µM (p70 S6K) [%]	remaining activity at 10 µM (p70 S6K) [%]	remaining activity at 1 µM (GSK3b) [%]	remaining activity at 10 µM (GSK3b) [%]	remaining activity at 1 µM (CHK2; inhibitor 1 μM) [%]	remaining activity at 10 µM (CHK2; inhibitor 10 μM) [%]	CK2 activity as percentage of control without inhibitor (CK2; inhibitor 1 μM) [%]	CK2 activity as percentage of control without inhibitor (CK2; inhibitor 10 μM) [%]	also measured
COc1ccc2c3c([nH]c2c1)C(C)=NCC3 [Harmaline]	76	113	104	112	14	84	71	83	77	82	89	89	94	88	–
COc1ccc2c(c1)[nH]c1c(C)nccc12 [Harmine]	–	–	–	–	–	–	90	93	82	72	–	–	82	41	remaining activity at 1 µM (SAPK4/p38d): 96%; remaining activity at 10 µM (SAPK4/p38d): 82%; remaining activity at 1 µM (MAPKAP-K2): 78%; remaining activity at 10 µM (MAPKAP-K2): 82%; remaining activity at 1 µM (SGK): 66%; remaining activity at 10 µM (SGK): 62%; remaining activity at 1 µM (CHK2): 78%; remaining activity at 10 µM (CHK2): 79%
CC1=NCCc2c1[nH]c1cc(O)ccc21 [Harmalol]	101	93	79	69	62	45	95	69	–	–	76	57	55	12	remaining activity at 1 µM (GSK3b; inhibitor 1 μM): 90%; remaining activity at 10 µM (GSK3b; inhibitor 10 μM): 73%
